Reference: patent US7138361B2, “Herbicidal heterocycles” (E. I. du Pont de Nemours and Company, priority 2000, dated 2006)

How the values were obtained:
Format in all cases: in vivo
[1] = system: Surinam grass (Brachiaria decumbens); assay: Test B postemergence; conditions: 13 to 15 days
Method in brief: (§1)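 Ratings on a 0 to 100 visual scale (100 complete control) compare treated plants with controls 13 to 15 days after application. Treatments were pre- or postemergence sprays of compound in non-phytotoxic solvent with surfactant.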

[2] = system: barnyardgrass (Echinochloa crus-galli); assay: Test B postemergence; conditions: 13 to 15 days
Method in brief: as §1

[3] = system: blackgrass (Alopecurus myosuroides); assay: Test B postemergence; conditions: 13 to 15 days
Method in brief: as §1

[4] = system: cocklebur (Xanthium strumarium); assay: Test B postemergence; conditions: 13 to 15 days
Method in brief: as §1

[5] = system: corn (Zea mays); assay: Test B postemergence; conditions: 13 to 15 days
Method in brief: as §1

[6] = system: crabgrass (Digitaria sanguinalis); assay: Test B postemergence; conditions: 13 to 15 days
Method in brief: as §1

[7] = system: giant foxtail (Setaria faberii); assay: Test B postemergence; conditions: 13 to 15 days
Method in brief: as §1

[8] = system: lambsquarters (Chenopodium album); assay: Test B postemergence; conditions: 13 to 15 days
Method in brief: as §1

[9] = system: morning glory (Ipomoea hederacea); assay: Test B postemergence; conditions: 13 to 15 days
Method in brief: as §1

[10] = system: pigweed (Amaranthus retroflexus); assay: Test B postemergence; conditions: 13 to 15 days
Method in brief: as §1

[11] = system: velvetleaf (Abutilon theophrasti); assay: Test B postemergence; conditions: 13 to 15 days
Method in brief: as §1

[12] = system: wheat (Triticum aestivum); assay: Test B postemergence; conditions: 13 to 15 days
Method in brief: as §1

[13] = system: wild oat (Avena fatua); assay: Test B postemergence; conditions: 13 to 15 days
Method in brief: as §1

[14] = system: Surinam grass (Brachiaria decumbens); assay: Test B preemergence; conditions: scale 0 to 100, 0 no effect, 100 complete control
Method in brief: as §1

[15] = system: barnyardgrass (Echinochloa crus-galli); assay: Test B preemergence; conditions: scale 0 to 100, 0 no effect, 100 complete control
Method in brief: as §1

[16] = system: cocklebur (Xanthium strumarium); assay: Test B preemergence; conditions: scale 0 to 100, 0 no effect, 100 complete control
Method in brief: as §1

[17] = system: corn (Zea mays); assay: Test B preemergence; conditions: scale 0 to 100, 0 no effect, 100 complete control
Method in brief: as §1

[18] = system: crabgrass (Digitaria sanguinalis); assay: Test B preemergence; conditions: scale 0 to 100, 0 no effect, 100 complete control
Method in brief: as §1

[19] = system: giant foxtail (Setaria faberii); assay: Test B preemergence; conditions: scale 0 to 100, 0 no effect, 100 complete control
Method in brief: as §1

[20] = system: lambsquarters (Chenopodium album); assay: Test B preemergence; conditions: scale 0 to 100, 0 no effect, 100 complete control
Method in brief: as §1

[21] = system: morning glory (Ipomoea hederacea); assay: Test B preemergence; conditions: scale 0 to 100, 0 no effect, 100 complete control
Method in brief: as §1

[22] = system: pigweed (Amaranthus retroflexus); assay: Test B preemergence; conditions: scale 0 to 100, 0 no effect, 100 complete control
Method in brief: as §1

[23] = system: rice (Oryza saliva); assay: Test B preemergence; conditions: scale 0 to 100, 0 no effect, 100 complete control
Method in brief: as §1

[24] = system: velvetleaf (Abutilon theophrasti); assay: Test B preemergence; conditions: scale 0 to 100, 0 no effect, 100 complete control
Method in brief: as §1

[25] = system: barnyardgrass (Echinochloa crus-galli); assay: Test B flooded paddy test; conditions: Rate 1000 g/ha, scale of 0 to 100 where 0 is no effect and 100 is complete control, visually evaluated after 13 to 15 days
Method in brief: (§2)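 Treatment: formulated chemical applied to flooded paddy plants at 2-leaf stage. Hold: greenhouse, 13–15 days. Scoring: visual comparison to controls, 0 (no effect) to 100 (complete control).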

[26] = system: duck salad (Heteranthera limosa); assay: Test B flooded paddy test; conditions: Rate 1000 g/ha, scale of 0 to 100 where 0 is no effect and 100 is complete control, visually evaluated after 13 to 15 days
Method in brief: as §2

[27] = system: rice (Oryza saliva); assay: Test B flooded paddy test; conditions: Rate 1000 g/ha, scale of 0 to 100 where 0 is no effect and 100 is complete control, visually evaluated after 13 to 15 days
Method in brief: as §2

[28] = system: smallflower flatsedge (Cyperus difformis); assay: Test B flooded paddy test; conditions: Rate 1000 g/ha, scale of 0 to 100 where 0 is no effect and 100 is complete control, visually evaluated after 13 to 15 days
Method in brief: as §2

[29] = system: barnyardgrass (Echinochloa crus-galli); assay: Test C flooded paddy test
Method in brief: (§3)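 2-leaf-stage plants, flooded paddy; treated; greenhouse 12–14 days; compared with controls by eye; rated 0–100 (0 none, 100 complete control).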

[30] = system: duck salad (Heteranthera limosa); assay: Test C flooded paddy test
Method in brief: as §3

[31] = system: rice (Oryza saliva); assay: Test C flooded paddy test
Method in brief: as §3

[32] = system: smallflower flatsedge (Cyperus difformis); assay: Test C flooded paddy test; conditions: for Flatsedge plant response rating: Flooded Paddy, scale 0 to 100, 0 no effect, 100 complete control; for Plant response rating, Flatsedge: flooded paddy test, scale 0 to 100 (0 no effect, 100 complete control)
Method in brief: as §3

[33] = Rate 125 g/ha, scale 0 (no effect) to 100 (complete control)
[34] = Rate 500 g/ha, scale 0 to 100, 0 is no effect, 100 is complete control
[35] = Flooded Paddy, Rate 500 g/ha, scale 0 to 100
[36] = Flooded Paddy, Rate 250 g/ha, scale 0 to 100, 0 no effect, 100 complete control
[37] = flooded paddy test, Rate 62 g/ha, scale 0 to 100 (0 no effect, 100 complete control)
[38] = flooded paddy test, Rate 125 g/ha, scale 0 to 100 (0 no effect, 100 complete control)

Compound: Cc1ccn(C2SCN(c3cccc(C(F)(F)F)c3)C2=O)n1 (centres unmarked) [Compound 19]
- Plant response rating, Surinam grass [1, 33]: 0
- Plant response rating, Surinam grass [1, 34]: 10
- Plant response rating, Barnyardgrass [2, 33]: 0
- Plant response rating, Barnyardgrass [2, 34]: 0
- Plant response rating, Blackgrass [3, 33]: 0
- Plant response rating, Blackgrass [3, 34]: 0
- Plant response rating, Cocklebur [4, 33]: 20
- Plant response rating, Cocklebur [4, 34]: 20
- Plant response rating, Corn [5, 33]: 0
- Plant response rating, Corn [5, 34]: 0
- Plant response rating, Crabgrass [6, 33]: 0
- Plant response rating, Crabgrass [6, 34]: 20
- Plant response rating, Foxtail, Giant [7, 33]: 0
- Plant response rating, Foxtail, Giant [7, 34]: 0
- Plant response rating, Lambsquarters [8, 33]: 10
- Plant response rating, Lambsquarters [8, 34]: 70
- Plant response rating, Morningglory [9, 33]: 20
- Plant response rating, Morningglory [9, 34]: 30
- Plant response rating, Pigweed [10, 33]: 0
- Plant response rating, Pigweed [10, 34]: 0
- Plant response rating, Velvetleaf [11, 33]: 10
- Plant response rating, Velvetleaf [11, 34]: 20
- Plant response rating, Wheat [12, 33]: 0
- Plant response rating, Wheat [12, 34]: 0
- Plant response rating, Wild Oat [13, 33]: 0
- Plant response rating, Wild Oat [13, 34]: 0
- Plant response rating, Surinam grass ([14]; Preemergence, Rate 500 g/ha): 20
- Plant response rating, Surinam grass ([14]; preemergence, Rate 125 g/ha): 0
- Plant response rating, Barnyardgrass ([15]; Preemergence, Rate 500 g/ha): 0
- Plant response rating, Barnyardgrass ([15]; preemergence, Rate 125 g/ha): 0
- Plant response rating, Cocklebur ([16]; Preemergence, Rate 500 g/ha): 0
- Plant response rating, Cocklebur ([16]; preemergence, Rate 125 g/ha): 0
- Plant response rating, Corn ([17]; Preemergence, Rate 500 g/ha): 0
- Plant response rating, Corn ([17]; preemergence, Rate 125 g/ha): 0
- Plant response rating, Crabgrass ([18]; Preemergence, Rate 500 g/ha): 0
- Plant response rating, Crabgrass ([18]; preemergence, Rate 125 g/ha): 0
- Plant response rating, Foxtail, Giant ([19]; Preemergence, Rate 500 g/ha): 0
- Plant response rating, Foxtail, Giant ([19]; preemergence, Rate 125 g/ha): 0
- Plant response rating, Lambsquarters ([20]; Preemergence, Rate 500 g/ha): 60
- Plant response rating, Lambsquarters ([20]; preemergence, Rate 125 g/ha): 0
- Plant response rating, Morningglory ([21]; Preemergence, Rate 500 g/ha): 0
- Plant response rating, Morningglory ([21]; preemergence, Rate 125 g/ha): 0
- Plant response rating, Pigweed ([22]; Preemergence, Rate 500 g/ha): 0
- Plant response rating, Pigweed ([22]; preemergence, Rate 125 g/ha): 0
- Plant response rating, Rice ([23]; Preemergence, Rate 500 g/ha): 0
- Plant response rating, Rice ([23]; preemergence, Rate 125 g/ha): 0
- Plant response rating, Velvetleaf ([24]; Preemergence, Rate 500 g/ha): 0
- Plant response rating, Velvetleaf ([24]; preemergence, Rate 125 g/ha): 0
- Plant response rating, Barnyardgrass [25]: 60
- Plant response rating, Ducksalad [26]: 80
- Plant response rating, Rice [27]: 0
- Plant response rating, Flatsedge [28]: 90
- Plant response rating, Barnyardgrass [29, 35]: 0
- Barnyardgrass plant response rating [29, 36]: 0
- Plant response rating, Barnyardgrass [29, 37]: 0
- Plant response rating, Barnyardgrass [29, 38]: 0
- Plant response rating, Ducksalad [30, 35]: 0
- Ducksalad plant response rating [30, 36]: 0
- Plant response rating, Ducksalad [30, 37]: 0
- Plant response rating, Ducksalad [30, 38]: 0
- Plant response rating, Rice [31, 35]: 0
- Rice plant response rating [31, 36]: 0
- Plant response rating, Rice [31, 37]: 0
- Plant response rating, Rice [31, 38]: 0
- Flatsedge plant response rating ([32]; Rate 250 g/ha): 0
- Flatsedge plant response rating ([32]; Rate 500 g/ha): 30
- Plant response rating, Flatsedge ([32]; Rate 62 g/ha): 0
- Plant response rating, Flatsedge ([32]; Rate 125 g/ha): 0
